# Laboratory results: ChEMBL document CHEMBL3885881, “DrugMatrix”
# Organism: Rattus norvegicus
# Assay: DrugMatrix - Regimen: Daily Repeat
# Format: toxicity, organism-based, Sprague-Dawley
# Design: regimen Daily Repeat, gender Male, age 6-8 weeks
# Conditions: in vivo, po, route oral GAVAGE, vehicle .5 % CMC; for ABSOLUTE BASOPHIL / BASOPHIL / EOSINOPHIL / ERYTHROCYTE COUNT / HEMATOCRIT / HEMOGLOBIN / LEUKOCYTE COUNT / LYMPHOCYTE / MEAN CORPUSCULAR HEMOGLOBIN / MEAN CORPUSCULAR HEMOGLOBIN CONCENTRATION / MEAN CORPUSCULAR VOLUME / MONOCYTE / NEUTROPHIL / PLATELET COUNT: tissue Blood; for ALANINE AMINOTRANSFERASE / ALKALINE PHOSPHATASE / ASPARTATE AMINOTRANSFERASE / BLOOD UREA NITROGEN / CHLORIDE / CHOLESTEROL / CREATINE PHOSPHOKINASE / CREATININE / GLUCOSE / PHOSPHORUS / POTASSIUM / SODIUM / TOTAL BILIRUBIN / TOTAL PROTEIN: tissue Plasma
# [1] = 0 mg/kg, 72 h, dose level Control, time 3 day
# [2] = 0 mg/kg, 120 h, dose level Control, time 5 day
# [3] = 32 mg/kg, 72 h, dose level Low, time 3 day
# [4] = 32 mg/kg, 120 h, dose level Low, time 5 day
# [5] = 320 mg/kg, 72 h, dose level High, time 3 day
# [6] = 320 mg/kg, 120 h, dose level High, time 5 day
smiles,measurement,setting,value
C1CCC(C(CC2CCCCN2)C2CCCCC2)CC1 (stereo not drawn) [PERHEXILINE],ABSOLUTE BASOPHIL,[1],16.7 cells/µL
same,BASOPHIL,[1],0.17%
same,EOSINOPHIL,[1],0.62%
same,ERYTHROCYTE COUNT,[1],6.55 x10E6/uL
same,HEMATOCRIT,[1],42%
same,HEMOGLOBIN,[1],13.48 G/DL
same,LEUKOCYTE COUNT,[1],8.79 x10E3/uL
same,LYMPHOCYTE,[1],76.98%
same,MEAN CORPUSCULAR HEMOGLOBIN,[1],20.57 pg
same,MEAN CORPUSCULAR HEMOGLOBIN CONCENTRATION,[1],32.08 G/DL
same,MEAN CORPUSCULAR VOLUME,[1],64.1 fL
same,MONOCYTE,[1],2.12%
same,NEUTROPHIL,[1],19%
same,PLATELET COUNT,[1],1432.17 x10E3/uL
same,ALANINE AMINOTRANSFERASE,[1],42.83 u/L
same,ALKALINE PHOSPHATASE,[1],328.5 u/L
same,ASPARTATE AMINOTRANSFERASE,[1],78.33 u/L
same,BLOOD UREA NITROGEN,[1],14.5 mg/dL
same,CHLORIDE,[1],104.5 MEQ/L
same,CHOLESTEROL,[1],78.67 mg/dL
same,CREATINE PHOSPHOKINASE,[1],282.33 u/L
same,CREATININE,[1],0.25 mg/dL
same,GLUCOSE,[1],173.67 mg/dL
same,PHOSPHORUS,[1],12.83 mg/dL
same,POTASSIUM,[1],6.7 MEQ/L
same,SODIUM,[1],145.83 MEQ/L
same,TOTAL BILIRUBIN,[1],0.4 mg/dL
same,TOTAL PROTEIN,[1],5.93 G/DL
same,ABSOLUTE BASOPHIL,[2],28 cells/µL
same,BASOPHIL,[2],0.26%
same,EOSINOPHIL,[2],0.44%
same,ERYTHROCYTE COUNT,[2],6.99 x10E6/uL
same,HEMATOCRIT,[2],45.12%
same,HEMOGLOBIN,[2],14.26 G/DL
same,LEUKOCYTE COUNT,[2],9.42 x10E3/uL
same,LYMPHOCYTE,[2],79.92%
same,MEAN CORPUSCULAR HEMOGLOBIN,[2],20.44 pg
same,MEAN CORPUSCULAR HEMOGLOBIN CONCENTRATION,[2],31.62 G/DL
same,MEAN CORPUSCULAR VOLUME,[2],64.6 fL
same,MONOCYTE,[2],2.2%
same,NEUTROPHIL,[2],16.14%
same,PLATELET COUNT,[2],1062.2 x10E3/uL
same,ALANINE AMINOTRANSFERASE,[2],44 u/L
same,ALKALINE PHOSPHATASE,[2],342.6 u/L
same,ASPARTATE AMINOTRANSFERASE,[2],74.17 u/L
same,BLOOD UREA NITROGEN,[2],13 mg/dL
same,CHLORIDE,[2],103 MEQ/L
same,CHOLESTEROL,[2],72.83 mg/dL
same,CREATINE PHOSPHOKINASE,[2],184.67 u/L
same,CREATININE,[2],0.47 mg/dL
same,GLUCOSE,[2],168.17 mg/dL
same,PHOSPHORUS,[2],12.27 mg/dL
same,POTASSIUM,[2],6.98 MEQ/L
same,SODIUM,[2],147 MEQ/L
same,TOTAL BILIRUBIN,[2],0.65 mg/dL
same,TOTAL PROTEIN,[2],6.23 G/DL
same,ABSOLUTE BASOPHIL,[3],20 cells/µL
same,BASOPHIL,[3],0.17%
same,EOSINOPHIL,[3],0.47%
same,ERYTHROCYTE COUNT,[3],6.84 x10E6/uL
same,HEMATOCRIT,[3],42.07%
same,HEMOGLOBIN,[3],13.8 G/DL
same,LEUKOCYTE COUNT,[3],11 x10E3/uL
same,LYMPHOCYTE,[3],83.1%
same,MEAN CORPUSCULAR HEMOGLOBIN,[3],20.2 pg
same,MEAN CORPUSCULAR HEMOGLOBIN CONCENTRATION,[3],32.8 G/DL
same,MEAN CORPUSCULAR VOLUME,[3],61.57 fL
same,MONOCYTE,[3],1.9%
same,NEUTROPHIL,[3],12.83%
same,PLATELET COUNT,[3],1282.33 x10E3/uL
same,ALANINE AMINOTRANSFERASE,[3],33.33 u/L
same,ALKALINE PHOSPHATASE,[3],346 u/L
same,ASPARTATE AMINOTRANSFERASE,[3],61 u/L
same,BLOOD UREA NITROGEN,[3],11.67 mg/dL
same,CHLORIDE,[3],104.33 MEQ/L
same,CHOLESTEROL,[3],65.33 mg/dL
same,CREATINE PHOSPHOKINASE,[3],229 u/L
same,CREATININE,[3],0.37 mg/dL
same,GLUCOSE,[3],183.67 mg/dL
same,PHOSPHORUS,[3],13.7 mg/dL
same,POTASSIUM,[3],6.87 MEQ/L
same,SODIUM,[3],145.33 MEQ/L
same,TOTAL BILIRUBIN,[3],0.3 mg/dL
same,TOTAL PROTEIN,[3],5.73 G/DL
same,ABSOLUTE BASOPHIL,[4],150 cells/µL
same,BASOPHIL,[4],1.2%
same,EOSINOPHIL,[4],0.5%
same,ERYTHROCYTE COUNT,[4],7.42 x10E6/uL
same,HEMATOCRIT,[4],47.53%
same,HEMOGLOBIN,[4],15.03 G/DL
same,LEUKOCYTE COUNT,[4],12.21 x10E3/uL
same,LYMPHOCYTE,[4],82.57%
same,MEAN CORPUSCULAR HEMOGLOBIN,[4],20.33 pg
same,MEAN CORPUSCULAR HEMOGLOBIN CONCENTRATION,[4],31.7 G/DL
same,MEAN CORPUSCULAR VOLUME,[4],64.2 fL
same,MONOCYTE,[4],2.13%
same,NEUTROPHIL,[4],12.7%
same,PLATELET COUNT,[4],1404 x10E3/uL
same,ALANINE AMINOTRANSFERASE,[4],34.33 u/L
same,ALKALINE PHOSPHATASE,[4],375.33 u/L
same,ASPARTATE AMINOTRANSFERASE,[4],68.33 u/L
same,BLOOD UREA NITROGEN,[4],11.33 mg/dL
same,CHLORIDE,[4],102 MEQ/L
same,CHOLESTEROL,[4],67 mg/dL
same,CREATINE PHOSPHOKINASE,[4],206.67 u/L
same,CREATININE,[4],0.3 mg/dL
same,GLUCOSE,[4],187 mg/dL
same,PHOSPHORUS,[4],12.13 mg/dL
same,POTASSIUM,[4],6.8 MEQ/L
same,SODIUM,[4],149.67 MEQ/L
same,TOTAL BILIRUBIN,[4],0.3 mg/dL
same,TOTAL PROTEIN,[4],6.4 G/DL
same,ABSOLUTE BASOPHIL,[5],33.3 cells/µL
same,BASOPHIL,[5],0.33%
same,EOSINOPHIL,[5],0.4%
same,ERYTHROCYTE COUNT,[5],7.33 x10E6/uL
same,HEMATOCRIT,[5],45.27%
same,HEMOGLOBIN,[5],14.7 G/DL
same,LEUKOCYTE COUNT,[5],9.79 x10E3/uL
same,LYMPHOCYTE,[5],79.33%
same,MEAN CORPUSCULAR HEMOGLOBIN,[5],20.1 pg
same,MEAN CORPUSCULAR HEMOGLOBIN CONCENTRATION,[5],32.53 G/DL
same,MEAN CORPUSCULAR VOLUME,[5],61.77 fL
same,MONOCYTE,[5],1.37%
same,NEUTROPHIL,[5],17.17%
same,PLATELET COUNT,[5],1599 x10E3/uL
same,ALANINE AMINOTRANSFERASE,[5],47 u/L
same,ALKALINE PHOSPHATASE,[5],318.5 u/L
same,ASPARTATE AMINOTRANSFERASE,[5],61.67 u/L
same,BLOOD UREA NITROGEN,[5],9.67 mg/dL
same,CHLORIDE,[5],102.33 MEQ/L
same,CHOLESTEROL,[5],74 mg/dL
same,CREATINE PHOSPHOKINASE,[5],199.67 u/L
same,CREATININE,[5],0.33 mg/dL
same,GLUCOSE,[5],167 mg/dL
same,PHOSPHORUS,[5],14.17 mg/dL
same,POTASSIUM,[5],6.63 MEQ/L
same,SODIUM,[5],146.33 MEQ/L
same,TOTAL BILIRUBIN,[5],0.33 mg/dL
same,TOTAL PROTEIN,[5],6 G/DL
same,ABSOLUTE BASOPHIL,[6],50 cells/µL
same,BASOPHIL,[6],0.5%
same,EOSINOPHIL,[6],0.34%
same,ERYTHROCYTE COUNT,[6],7.26 x10E6/uL
same,HEMATOCRIT,[6],45.84%
same,HEMOGLOBIN,[6],14.82 G/DL
same,LEUKOCYTE COUNT,[6],10.17 x10E3/uL
same,LYMPHOCYTE,[6],80.92%
same,MEAN CORPUSCULAR HEMOGLOBIN,[6],20.46 pg
same,MEAN CORPUSCULAR HEMOGLOBIN CONCENTRATION,[6],32.36 G/DL
same,MEAN CORPUSCULAR VOLUME,[6],63.26 fL
same,MONOCYTE,[6],1.18%
same,NEUTROPHIL,[6],16.4%
same,PLATELET COUNT,[6],1254 x10E3/uL
same,ALANINE AMINOTRANSFERASE,[6],48.8 u/L
same,ALKALINE PHOSPHATASE,[6],300.75 u/L
same,ASPARTATE AMINOTRANSFERASE,[6],75.6 u/L
same,BLOOD UREA NITROGEN,[6],12.2 mg/dL
same,CHLORIDE,[6],102.2 MEQ/L
same,CHOLESTEROL,[6],68.6 mg/dL
same,CREATINE PHOSPHOKINASE,[6],173.4 u/L
same,CREATININE,[6],0.36 mg/dL
same,GLUCOSE,[6],186.4 mg/dL
same,PHOSPHORUS,[6],13.36 mg/dL
same,POTASSIUM,[6],6.38 MEQ/L
same,SODIUM,[6],146.8 MEQ/L
same,TOTAL BILIRUBIN,[6],0.28 mg/dL
same,TOTAL PROTEIN,[6],5.88 G/DL
